How the values were obtained:
Assay type in all cases: cell-based
EGFR WT (Ba/F3 cells) = biological target: T1, EGFR WT (Ba/F3 cells) (Homo sapiens, UniProt P00533); assay: Inhibitor activity on EGFR-dependent cell growth (CellTiter-Glo, 72 h), Ba/F3 EGFR WT; details: read-out: BaF3 WT IC50
T1 construct: expressed in transfected cells; host or cells: Ba/F3 (murine pro-B cells), retroviral transduction, puromycin selection, maintained with EGF
Description: (§1) Example A. Inhibitor Activity on EGFR-Dependent Cell Growth
(§2) Cell lines are generated by transducing Ba/F3 cells with retroviruses containing vectors with EGFR WT, EGFR L858R, EGFR exon 19del, EGFR L858R/C797S, EGFR exon 20 NPG Ins D770_N771, EGFR exon 20 ASV Ins V769_D770, EGFR exon 20 SVD Ins D770_N771, or EGFR exon 20 FQEA Ins A763_V764 genes and a puromycin selection marker. Transduced cells are selected with puromycin for 7 days and are then be transferred into culture media without Interleukin 3 (IL3). EGFR WT cells are maintained with supplemental EGF. Surviving cells are confirmed to express EGFR by Western blot and maintained as a pool. The IC50 date were included in Table 6 and Table 7.
(§3) 1.1 Cells are harvested from flask into cell culture medium and the cell number counted.
(§4) 1.2 Cells are diluted with culture medium to the desired density and 40 μL of cell suspension is added into each well of 384-well cell culture plate and the seeding density is 800 (FQEA, exon 19del), 600 (WT, NPG, L858R/C797S), or 400 (ASV, SVD, L858R) cells/well.
(§5) 2 Compound Preparation and Treatment
(§6) 2.1 Test compounds are dissolved to 10 mM in a DMSO stock solution. 45 μL of stock solution is transferred to a 384 polypropylene plate (pp-plate). Perform 3-fold, 10-point dilution via transferring 15 μL compound into 30 μL DMSO using a TECAN (EVO200) liquid handler.
(§7) 2.2 Spin plates at room temperature at 1,000 RPM for 1 minute.
(§8) 2.3 Transfer 120 nL of diluted compound from compound source plate into the cell plate.
(§9) 2.4 After compound treatment for 72 hours, perform CTG detection for compound treatment plates as described in “Detection” section.
(§10) 3.1 Plates are removed from incubators and equilibrated at room temperature for 15 minutes.
(§11) 3.2 Thaw the CellTiter Glo reagents and allow to equilibrate to room temperature before the experiment.
(§12) 3.3 Add 40 μL of CellTiter-Glo reagent into each well (at 1:1 to culture medium). Then place the plates at room temperature for 30 min followed by reading on EnVision.
(§13) 4.1 Inhibition activity is calculated following the formula below:
(§14) % Inhibition=100×(LumHC−LumSample)/(LumHC−LumLC) • where HC is obtained from cells treated with 0.1% DMSO only; and LC is obtained from culture medium only.
(§15) 4.2 2. Calculate the IC50 by fitting the Curve using Xlfit (v5.3.1.3), equation 201.
(§16) Y=Bottom+(Top−Bottom)/(1+10^((Log IC50−X)*HillSlope))

[1] = biological target: T2, EGFR exon 20 ASV Ins V769_D770 (Ba/F3 cells) (Homo sapiens, UniProt P00533, INS769ASV); assay: Inhibitor activity on EGFR-dependent cell growth (CellTiter-Glo, 72 h), Ba/F3 EGFR exon 20 ASV Ins; details: read-out: BaF3 ASV IC50
T2 construct: expressed in transfected cells; host or cells: Ba/F3 (murine pro-B cells), retroviral transduction, puromycin selection, IL3-independent pool
T2 sequence (P00533 with tags, fused parts or gaps INS769ASV): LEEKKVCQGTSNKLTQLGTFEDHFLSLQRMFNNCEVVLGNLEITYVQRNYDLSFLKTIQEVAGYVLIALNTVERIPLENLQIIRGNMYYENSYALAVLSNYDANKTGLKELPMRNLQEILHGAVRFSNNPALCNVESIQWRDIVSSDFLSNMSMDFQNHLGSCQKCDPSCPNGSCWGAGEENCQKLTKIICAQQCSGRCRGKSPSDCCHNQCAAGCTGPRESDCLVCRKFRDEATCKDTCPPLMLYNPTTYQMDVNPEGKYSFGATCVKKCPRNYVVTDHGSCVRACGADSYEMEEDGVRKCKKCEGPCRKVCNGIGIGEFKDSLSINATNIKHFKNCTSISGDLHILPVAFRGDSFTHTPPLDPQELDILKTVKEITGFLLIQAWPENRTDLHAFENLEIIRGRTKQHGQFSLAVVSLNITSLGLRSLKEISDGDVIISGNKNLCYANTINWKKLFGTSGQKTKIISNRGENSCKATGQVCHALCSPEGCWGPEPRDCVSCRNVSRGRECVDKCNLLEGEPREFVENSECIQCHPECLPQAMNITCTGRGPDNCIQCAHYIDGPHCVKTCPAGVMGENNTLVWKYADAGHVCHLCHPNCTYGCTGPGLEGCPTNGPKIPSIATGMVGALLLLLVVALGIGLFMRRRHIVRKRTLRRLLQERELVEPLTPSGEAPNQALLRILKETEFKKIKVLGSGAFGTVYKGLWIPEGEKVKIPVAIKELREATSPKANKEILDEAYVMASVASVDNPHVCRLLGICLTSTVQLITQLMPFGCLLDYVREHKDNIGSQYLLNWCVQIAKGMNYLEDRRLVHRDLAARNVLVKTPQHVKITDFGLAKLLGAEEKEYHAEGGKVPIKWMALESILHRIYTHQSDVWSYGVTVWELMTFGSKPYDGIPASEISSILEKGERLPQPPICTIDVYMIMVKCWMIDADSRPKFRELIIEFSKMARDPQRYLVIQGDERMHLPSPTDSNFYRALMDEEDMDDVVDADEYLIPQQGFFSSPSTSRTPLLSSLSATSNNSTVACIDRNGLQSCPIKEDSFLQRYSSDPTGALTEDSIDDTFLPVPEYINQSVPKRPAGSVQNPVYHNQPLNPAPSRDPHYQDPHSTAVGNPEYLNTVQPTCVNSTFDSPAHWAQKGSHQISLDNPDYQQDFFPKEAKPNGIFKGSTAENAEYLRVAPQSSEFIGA
Description: as §1, §2, §3, §4, §5, §6, §7, §8, §9, §10, §11, §12, §13, §14, §15, §16

[2] = biological target: T3, EGFR exon 20 FQEA Ins A763_V764 (Ba/F3 cells) (Homo sapiens, UniProt P00533, INS763FQEA); assay: Inhibitor activity on EGFR-dependent cell growth (CellTiter-Glo, 72 h), Ba/F3 EGFR exon 20 FQEA Ins; details: read-out: BaF3 FQEA IC50
T3 construct: expressed in transfected cells; host or cells: Ba/F3 (murine pro-B cells), retroviral transduction, puromycin selection, IL3-independent pool
T3 sequence (P00533 with tags, fused parts or gaps INS763FQEA): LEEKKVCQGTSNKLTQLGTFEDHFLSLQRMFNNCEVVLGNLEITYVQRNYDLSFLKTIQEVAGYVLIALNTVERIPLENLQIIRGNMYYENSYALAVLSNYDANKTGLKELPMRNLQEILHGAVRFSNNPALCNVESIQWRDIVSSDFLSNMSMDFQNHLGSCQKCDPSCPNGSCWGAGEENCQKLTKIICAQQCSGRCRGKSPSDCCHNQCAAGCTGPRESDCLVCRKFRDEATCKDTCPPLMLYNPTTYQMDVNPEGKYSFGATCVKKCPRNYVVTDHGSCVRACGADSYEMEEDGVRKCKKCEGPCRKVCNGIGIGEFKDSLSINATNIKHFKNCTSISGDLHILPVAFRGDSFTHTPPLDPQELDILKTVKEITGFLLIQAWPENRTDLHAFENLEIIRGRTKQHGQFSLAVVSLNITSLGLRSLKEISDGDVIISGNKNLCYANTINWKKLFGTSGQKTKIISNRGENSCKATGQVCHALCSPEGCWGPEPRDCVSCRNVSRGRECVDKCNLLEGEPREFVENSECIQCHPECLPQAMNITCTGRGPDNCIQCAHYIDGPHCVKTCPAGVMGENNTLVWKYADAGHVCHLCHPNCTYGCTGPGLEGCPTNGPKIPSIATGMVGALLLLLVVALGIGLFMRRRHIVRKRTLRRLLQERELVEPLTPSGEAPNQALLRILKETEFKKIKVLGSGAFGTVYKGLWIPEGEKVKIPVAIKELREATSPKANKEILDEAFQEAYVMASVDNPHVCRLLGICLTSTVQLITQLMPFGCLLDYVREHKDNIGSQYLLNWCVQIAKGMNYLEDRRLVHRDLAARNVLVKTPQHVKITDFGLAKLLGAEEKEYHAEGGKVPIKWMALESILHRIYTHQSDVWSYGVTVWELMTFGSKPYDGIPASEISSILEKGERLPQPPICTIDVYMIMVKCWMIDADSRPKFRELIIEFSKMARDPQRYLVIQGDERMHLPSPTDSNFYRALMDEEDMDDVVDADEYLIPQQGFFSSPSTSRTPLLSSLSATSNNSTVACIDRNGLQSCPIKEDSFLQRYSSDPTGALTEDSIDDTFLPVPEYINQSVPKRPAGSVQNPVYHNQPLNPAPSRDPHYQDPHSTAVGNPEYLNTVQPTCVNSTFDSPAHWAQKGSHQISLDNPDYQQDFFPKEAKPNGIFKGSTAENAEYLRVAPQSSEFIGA
Description: as §1, §2, §3, §4, §5, §6, §7, §8, §9, §10, §11, §12, §13, §14, §15, §16

[3] = biological target: T4, EGFR exon 20 SVD Ins D770_N771 (Ba/F3 cells) (Homo sapiens, UniProt P00533, INS770SVD); assay: Inhibitor activity on EGFR-dependent cell growth (CellTiter-Glo, 72 h), Ba/F3 EGFR exon 20 SVD Ins; details: read-out: BaF3 SVD IC50
T4 construct: expressed in transfected cells; host or cells: Ba/F3 (murine pro-B cells), retroviral transduction, puromycin selection, IL3-independent pool
T4 sequence (P00533 with tags, fused parts or gaps INS770SVD): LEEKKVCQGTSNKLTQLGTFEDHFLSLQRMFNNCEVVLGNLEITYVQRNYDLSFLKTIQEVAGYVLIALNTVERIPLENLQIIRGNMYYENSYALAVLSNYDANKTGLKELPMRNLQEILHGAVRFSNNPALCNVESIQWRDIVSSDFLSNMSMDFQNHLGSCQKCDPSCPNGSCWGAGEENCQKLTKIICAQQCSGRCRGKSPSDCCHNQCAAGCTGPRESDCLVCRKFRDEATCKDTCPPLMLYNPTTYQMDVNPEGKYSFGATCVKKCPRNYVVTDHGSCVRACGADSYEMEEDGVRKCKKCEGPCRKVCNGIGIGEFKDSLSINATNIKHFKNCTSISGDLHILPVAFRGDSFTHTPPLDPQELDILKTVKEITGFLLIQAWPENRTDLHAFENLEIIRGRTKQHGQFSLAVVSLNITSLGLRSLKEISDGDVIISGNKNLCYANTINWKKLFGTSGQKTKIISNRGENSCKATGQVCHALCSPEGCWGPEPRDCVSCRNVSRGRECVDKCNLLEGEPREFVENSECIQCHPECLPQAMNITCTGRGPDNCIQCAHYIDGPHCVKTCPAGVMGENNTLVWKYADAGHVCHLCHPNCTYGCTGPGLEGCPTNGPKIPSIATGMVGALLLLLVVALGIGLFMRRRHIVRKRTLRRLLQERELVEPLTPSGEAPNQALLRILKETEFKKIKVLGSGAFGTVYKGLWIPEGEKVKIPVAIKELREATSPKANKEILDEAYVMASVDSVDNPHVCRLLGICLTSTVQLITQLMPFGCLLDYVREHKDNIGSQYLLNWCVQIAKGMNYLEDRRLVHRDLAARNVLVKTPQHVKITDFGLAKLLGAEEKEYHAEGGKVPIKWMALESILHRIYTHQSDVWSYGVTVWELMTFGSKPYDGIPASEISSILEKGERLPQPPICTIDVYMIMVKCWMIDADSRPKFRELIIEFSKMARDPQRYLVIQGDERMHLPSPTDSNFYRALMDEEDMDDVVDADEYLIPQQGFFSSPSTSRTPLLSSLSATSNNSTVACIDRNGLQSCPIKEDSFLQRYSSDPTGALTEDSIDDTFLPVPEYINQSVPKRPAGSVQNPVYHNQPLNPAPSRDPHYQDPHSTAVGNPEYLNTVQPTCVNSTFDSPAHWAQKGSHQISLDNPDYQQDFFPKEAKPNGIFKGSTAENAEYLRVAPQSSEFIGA
Description: as §1, §2, §3, §4, §5, §6, §7, §8, §9, §10, §11, §12, §13, §14, §15, §16

T1 sequence (P00533 25-1210): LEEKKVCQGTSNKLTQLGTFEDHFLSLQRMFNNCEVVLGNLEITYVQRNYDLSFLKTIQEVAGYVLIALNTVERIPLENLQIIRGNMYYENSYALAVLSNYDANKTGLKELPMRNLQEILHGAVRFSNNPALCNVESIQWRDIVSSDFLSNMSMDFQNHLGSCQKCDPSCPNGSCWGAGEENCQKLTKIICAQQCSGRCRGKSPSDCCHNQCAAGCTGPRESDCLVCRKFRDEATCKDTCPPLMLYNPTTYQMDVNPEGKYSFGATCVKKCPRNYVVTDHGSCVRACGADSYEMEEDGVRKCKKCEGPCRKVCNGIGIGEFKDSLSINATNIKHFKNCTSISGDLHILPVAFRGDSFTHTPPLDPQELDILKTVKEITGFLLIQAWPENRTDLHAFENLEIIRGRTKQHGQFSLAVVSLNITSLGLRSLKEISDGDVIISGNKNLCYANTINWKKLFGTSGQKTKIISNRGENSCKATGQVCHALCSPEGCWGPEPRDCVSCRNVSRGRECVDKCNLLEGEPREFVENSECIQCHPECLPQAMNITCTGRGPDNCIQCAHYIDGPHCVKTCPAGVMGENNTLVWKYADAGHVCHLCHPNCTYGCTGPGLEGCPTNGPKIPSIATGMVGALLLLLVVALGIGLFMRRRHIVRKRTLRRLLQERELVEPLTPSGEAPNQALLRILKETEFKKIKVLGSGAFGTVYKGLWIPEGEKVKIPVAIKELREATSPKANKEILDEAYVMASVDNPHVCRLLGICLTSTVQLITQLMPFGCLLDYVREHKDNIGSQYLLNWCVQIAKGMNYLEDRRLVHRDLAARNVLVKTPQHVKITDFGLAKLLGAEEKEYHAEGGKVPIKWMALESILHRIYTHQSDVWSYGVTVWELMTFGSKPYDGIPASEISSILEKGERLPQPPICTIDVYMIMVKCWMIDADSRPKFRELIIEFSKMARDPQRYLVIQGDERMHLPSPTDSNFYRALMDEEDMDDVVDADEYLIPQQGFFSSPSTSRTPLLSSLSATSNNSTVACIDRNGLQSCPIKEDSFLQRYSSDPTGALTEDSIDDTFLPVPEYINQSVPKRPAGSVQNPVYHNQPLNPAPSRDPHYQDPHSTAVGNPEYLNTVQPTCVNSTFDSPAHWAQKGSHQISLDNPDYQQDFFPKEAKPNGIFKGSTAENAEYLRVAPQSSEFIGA

Compound | IC50 (EGFR WT (Ba/F3 cells)) [nM] | IC50 [1] [nM] | IC50 [2] [nM] | IC50 [3] [nM]
COc1c(Cl)cccc1Nc1c(-c2ccncc2F)[nH]c2c1C(=O)NC[C@@]21CCOC1 (single isomer, unassigned) [Compound 781] | > 1000 | 100 to 1000 | 100 to 1000 | 100 to 1000
COc1c(Cl)cccc1Nc1c(-c2ccncc2F)[nH]c2c1C(=O)NCC21CCOC1 (single isomer, unassigned) [Compound 782] | > 1000 | 100 to 1000 | 100 to 1000 | 100 to 1000
COc1c(Cl)cccc1Nc1c(-c2ccncc2F)[nH]c2c1C(=O)NCC2CC1CCO1 (single isomer, unassigned) [Compound 783] | > 1000 | < 100 | 100 to 1000 | –
COc1c(Cl)cccc1Nc1c(-c2ccncc2F)[nH]c2c1C(=O)NCC2CC1CCO1 (single isomer, unassigned) [Compound 784] | > 1000 | 100 to 1000 | 100 to 1000 | –
COCC[C@@H]1CNC(=O)c2c(Nc3cccc(Cl)c3OC)c(-c3ccncn3)n(C)c21 (single isomer, unassigned) [Compound 796] | > 1000 | > 1000 | > 1000 | > 1000
COCC[C@H]1CNC(=O)c2c(Nc3cccc(Cl)c3OC)c(-c3ccncn3)n(C)c21 (single isomer, unassigned) [Compound 797] | > 1000 | > 1000 | > 1000 | > 1000
COCC[C@@H]1CNC(=O)c2c1[nH]c(-c1ccnc(C)n1)c2Nc1cccc(Cl)c1OC [463a] | > 1000 | 100 to 1000 | 100 to 1000 | < 100
COc1c(Cl)cccc1Nc1c(-c2ccncc2F)[nH]c2c1C(=O)NC[C@H]2CC1COC1 [468b] | > 1000 | 100 to 1000 | 100 to 1000 | 100 to 1000
COc1c(F)cccc1Nc1c(-c2ccncc2F)[nH]c2c1C(=O)NC[C@@H]2C[C@@H]1CCO1 [Compound 422b, (7S)-3-[(3-fluoro-2-methoxyphenyl)amino]-2-(3-fluoropyridin-4-yl)-7-[(2R)-oxetan-2-ylmethyl]-1H,5H,6H,7H-pyrrolo[3,2-c]pyridin-4-one] | > 1000 | 100 to 1000 | 100 to 1000 | 100 to 1000
COCC[C@H]1CNC(=O)c2c1[nH]c(-c1ccncn1)c2Nc1cccc(F)c1OC [Compound 447b] | > 1000 | 100 to 1000 | 100 to 1000 | 100 to 1000
COCC[C@H]1CNC(=O)c2c1[nH]c(-c1ccncc1F)c2Nc1cccc(F)c1OC(F)F [Compound 471, (7S)-3-{[2-(difluoromethoxy)-3-fluorophenyl]amino}-2-(3-fluoropyridin-4-yl)-7-(2-methoxyethyl)-1H,5H,6H,7H-pyrrolo[3,2-c]pyridin-4-one] | > 1000 | 100 to 1000 | 100 to 1000 | 100 to 1000
COc1c(Cl)cccc1Nc1c(-c2ccncc2F)[nH]c2c1C(=O)NCC2CCF (stereo not shown) [Compound 473, 3-[(3-chloro-2-methoxyphenyl)amino]-7-(2-fluoroethyl)-2-(3-fluoropyridin-4-yl)-1H,5H,6H,7H-pyrrolo[3,2-c]pyridin-4-one] | > 1000 | 100 to 1000 | 100 to 1000 | 100 to 1000
COc1c(Cl)cccc1Nc1c(-c2ccncc2F)[nH]c2c1C(=O)NC[C@@H]2CC(N)=O [Compound 474] | > 1000 | > 1000 | > 1000 | > 1000
COC(=O)N1CCC2(CC1)CNC(=O)c1c2[nH]c(-c2ccncc2F)c1Nc1cccc(Cl)c1OC [Compound 479, methyl 3′-[(3-chloro-2-methoxyphenyl)amino]-2′-(3-fluoropyridin-4-yl)-4′-oxo-5′,6′-dihydro-1′H-spiro[piperidine-4,7′-pyrrolo[3,2-c]pyridine]-1-carboxylate] | > 1000 | 100 to 1000 | 100 to 1000 | 100 to 1000
COc1c(Cl)cccc1Nc1c(-c2ccncc2F)[nH]c2c1C(=O)NC[C@H]2CC(=O)N(C)C [Compound 487] | > 1000 | 100 to 1000 | 100 to 1000 | 100 to 1000
COc1c(Cl)cccc1Nc1c(-c2ccncc2F)[nH]c2c1C(=O)NC[C@H]2CC(N)=O [Compound 489] | > 1000 | 100 to 1000 | 100 to 1000 | 100 to 1000
COc1c(Cl)cccc1Nc1c(-c2ccncc2F)[nH]c2c1C(=O)NCC2 [compound 410] | > 1000 | – | 100 to 1000 | –
COc1c(Cl)cccc1Nc1c(-c2ccncn2)[nH]c2c1C(=O)NCC2 [compound 675, 3-[(3-chloro-2-methoxyphenyl)amino]-2-(pyrimidin-4-yl)-1H,5H,6H,7H-pyrrolo[3,2-c]pyridin-4-one] | > 1000 | – | 100 to 1000 | –

Other lines, results leading:

IC50 (EGFR WT (Ba/F3 cells)) [nM] | IC50 [1] [nM] | IC50 [2] [nM] | IC50 [3] [nM] | Compound
> 1000 | 100 to 1000 | – | – | COc1c(Cl)cccc1Nc1c(-c2ccncc2F)[nH]c2c1C(=O)NCC2C[C@H]1CO[C@H](CN(C)C)CO1 (single isomer, unassigned) [Compound 565, (7R*)-3-[(3-chloro-2-methoxyphenyl)amino]-7-{[(2S,5R)-5-[(dimethylamino)methyl]-1,4-dioxan-2-yl]methyl}-2-(3-fluoropyridin-4-yl)-1H,5H,6H,7H-pyrrolo[3,2-c]pyridin-4-one]
< 100 | < 100 | < 100 | < 100 | COC[C@@H]1CNC(=O)c2c1[nH]c(-c1ccnc3ccc(OC)nc13)c2Nc1cccc(Cl)c1OC (single isomer, unassigned) [Compound 765]
< 100 | < 100 | < 100 | < 100 | COc1c(Cl)cccc1Nc1c(-c2ccnc3ccc(OC4(C)CC4)nc23)[nH]c2c1C(=O)NC[C@H]2C (single isomer, unassigned) [Compound 774]
< 100 | < 100 | < 100 | < 100 | COc1c(Cl)cccc1Nc1c(-c2ccnc3ccc(OC4(C)CC4)nc23)[nH]c2c1C(=O)NC[C@@H]2C (single isomer, unassigned) [Compound 775]
100 to 1000 | < 100 | < 100 | – | COc1c(Cl)cccc1Nc1c(-c2ccncc2F)[nH]c2c1C(=O)NCC2CC1CCO1 (single isomer, unassigned) [Compound 785]
100 to 1000 | < 100 | 100 to 1000 | – | COc1c(Cl)cccc1Nc1c(-c2ccncc2F)[nH]c2c1C(=O)NCC2CC1CCO1 (single isomer, unassigned) [Compound 786]
100 to 1000 | < 100 | < 100 | < 100 | CC[C@H]1CNC(=O)c2c1[nH]c(-c1ccnc(N)n1)c2Nc1cccc(Cl)c1OC [189b]
< 100 | < 100 | < 100 | < 100 | COc1ccc2nccc(-c3[nH]c4c(c3Nc3cccc(Cl)c3OC)C(=O)NC[C@@H]4C)c2n1 [310b]
100 to 1000 | < 100 | 100 to 1000 | < 100 | COCC[C@@H]1CNC(=O)c2c1[nH]c(-c1ccncc1F)c2Nc1cccc(F)c1OC(F)F [Compound 470, (7R)-3-{[2-(difluoromethoxy)-3-fluorophenyl]amino}-2-(3-fluoropyridin-4-yl)-7-(2-methoxyethyl)-1H,5H,6H,7H-pyrrolo[3,2-c]pyridin-4-one]

Reference: US20240101576A1, “HETEROCYCLIC INHIBITORS OF EGFR AND/OR HER2, FOR USE IN THE TREATMENT OF CANCER” (Scorpion Therapeutics, Inc., priority 2020, published 2024)
